Data on two compounds can be found in patent publication US8426587B2, “Haloallylamine inhibitors of SSAO/VAP-1 and uses therefor” (Pharmaxis Ltd., priority 2007, dated 2013).

Counter-ions that a name gives are not always drawn. Bounds are passed on as bounds.

One experiment concerns the target T1, Human SSAO/VAP-1 (Homo sapiens, UniProt Q16853).
T1 sequence (Q16853 1-763): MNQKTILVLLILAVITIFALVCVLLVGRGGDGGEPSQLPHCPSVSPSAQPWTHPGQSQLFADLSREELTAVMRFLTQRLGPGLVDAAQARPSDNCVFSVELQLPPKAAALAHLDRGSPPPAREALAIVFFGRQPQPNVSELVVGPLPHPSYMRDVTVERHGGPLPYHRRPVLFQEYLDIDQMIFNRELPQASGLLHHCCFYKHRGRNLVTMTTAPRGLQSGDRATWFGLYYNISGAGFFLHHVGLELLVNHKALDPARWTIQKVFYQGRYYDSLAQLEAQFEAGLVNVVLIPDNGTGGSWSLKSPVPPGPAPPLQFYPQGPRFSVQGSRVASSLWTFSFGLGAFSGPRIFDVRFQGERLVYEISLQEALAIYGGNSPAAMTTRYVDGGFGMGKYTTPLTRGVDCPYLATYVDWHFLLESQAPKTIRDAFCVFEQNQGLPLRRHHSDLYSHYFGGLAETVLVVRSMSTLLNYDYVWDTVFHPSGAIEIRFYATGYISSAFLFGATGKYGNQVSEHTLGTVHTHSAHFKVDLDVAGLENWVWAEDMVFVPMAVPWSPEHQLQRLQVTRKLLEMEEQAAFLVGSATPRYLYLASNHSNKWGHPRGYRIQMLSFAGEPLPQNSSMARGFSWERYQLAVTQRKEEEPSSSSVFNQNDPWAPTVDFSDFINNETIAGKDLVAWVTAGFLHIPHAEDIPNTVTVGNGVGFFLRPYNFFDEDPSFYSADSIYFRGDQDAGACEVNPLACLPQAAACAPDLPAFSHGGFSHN
Description: Inhibition of amine oxidase activity of purified human SSAO/VAP-1 (Amplex Red). The format is biochemical. The following applies: purified human SSAO, 30 min at 37° C. preincubation, 300 μM benzylamine. As to the method:
(§1) To measure the SSAO activity, adipocyte homogenate (0.5 mg/mL) or adipocytes (adhering cells) containing 0.5 mM pargyline, or purified human SSAO was incubated in 0.1 M sodium phosphate buffer pH 7.4 with varying concentrations of test compounds for 30 min at 37° C. The homogenate was then incubated at 37° C. with 60 μM Amplex® Red, 0.75 U/mL HRP and 40 μM benzylamine (mouse SSAO) or 300 μM benzylamine (human SSAO) and the formation of resorufin was measured (excitation range 530-560 nm and emission at 590 nm) every 10 min in either a Tecan Infinite 200 or a BMG plate reader. The IC50 values were estimated using Graphpad Prism software. The IC50 is an estimation of the concentration of the test compound to inhibit the amine oxidase activity of SSAO/VAP-1 by 50%. The IC50 values of certain invention compounds are included in Table 1.

A further experiment has as its target T2, Human MAO-B (Homo sapiens, UniProt P27338).
T2 sequence (P27338 1-520): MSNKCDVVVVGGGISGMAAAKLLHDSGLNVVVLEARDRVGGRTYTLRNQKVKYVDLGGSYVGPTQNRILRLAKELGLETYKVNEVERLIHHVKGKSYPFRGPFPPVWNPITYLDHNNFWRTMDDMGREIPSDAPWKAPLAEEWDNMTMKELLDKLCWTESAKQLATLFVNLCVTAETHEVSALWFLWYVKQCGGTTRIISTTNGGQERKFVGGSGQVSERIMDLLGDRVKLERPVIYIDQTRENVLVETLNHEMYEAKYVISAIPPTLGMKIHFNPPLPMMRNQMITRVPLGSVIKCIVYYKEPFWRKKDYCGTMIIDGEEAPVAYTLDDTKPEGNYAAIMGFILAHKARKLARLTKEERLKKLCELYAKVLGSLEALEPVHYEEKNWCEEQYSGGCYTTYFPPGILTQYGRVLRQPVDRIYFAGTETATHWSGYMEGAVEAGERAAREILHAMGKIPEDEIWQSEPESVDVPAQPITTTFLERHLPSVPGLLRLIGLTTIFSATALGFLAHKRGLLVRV
Kind of experiment: Inhibition of recombinant MAO-B (Amplex Red). In kind it is biochemical. The following applies: 30 min at 37° C. preincubation, 50 μM benzylamine. As to the method:
Recombinant MAO-B was incubated in 0.1 M sodium phosphate buffer pH 7.4 with varying concentration of test compounds for 30 min at 37° C. The homogenate/protein was then incubated at 37° C. with […] Amplex® Red, 0.75 U/ml HRP and 40 μM benzylamine (mouse SSAO), 300 μM benzylamine (human SSAO), 100 μM tyramine (MAO-A) or 50 μM benzylamine (MAO-B) and the formation of resorufin was measured (excitation range 530-560 nm and emission at 590 nm) every 5 min in either a Tecan Infinite 200 or a BMG Fluorostar Optima platereader. IC50 were estimated using Graphpad Prism software.

A further experiment concerns the target T3, Mouse SSAO/VAP-1 (Mus musculus, UniProt O70423).
T3 construct: Adipocytes were used as an SSAO source either as adherent cells or as a homogenate; endogenous in cells; host or cells: 3T3-L1 murine fibroblasts (ATCC) differentiated into adipocytes
T3 sequence (O70423 1-765): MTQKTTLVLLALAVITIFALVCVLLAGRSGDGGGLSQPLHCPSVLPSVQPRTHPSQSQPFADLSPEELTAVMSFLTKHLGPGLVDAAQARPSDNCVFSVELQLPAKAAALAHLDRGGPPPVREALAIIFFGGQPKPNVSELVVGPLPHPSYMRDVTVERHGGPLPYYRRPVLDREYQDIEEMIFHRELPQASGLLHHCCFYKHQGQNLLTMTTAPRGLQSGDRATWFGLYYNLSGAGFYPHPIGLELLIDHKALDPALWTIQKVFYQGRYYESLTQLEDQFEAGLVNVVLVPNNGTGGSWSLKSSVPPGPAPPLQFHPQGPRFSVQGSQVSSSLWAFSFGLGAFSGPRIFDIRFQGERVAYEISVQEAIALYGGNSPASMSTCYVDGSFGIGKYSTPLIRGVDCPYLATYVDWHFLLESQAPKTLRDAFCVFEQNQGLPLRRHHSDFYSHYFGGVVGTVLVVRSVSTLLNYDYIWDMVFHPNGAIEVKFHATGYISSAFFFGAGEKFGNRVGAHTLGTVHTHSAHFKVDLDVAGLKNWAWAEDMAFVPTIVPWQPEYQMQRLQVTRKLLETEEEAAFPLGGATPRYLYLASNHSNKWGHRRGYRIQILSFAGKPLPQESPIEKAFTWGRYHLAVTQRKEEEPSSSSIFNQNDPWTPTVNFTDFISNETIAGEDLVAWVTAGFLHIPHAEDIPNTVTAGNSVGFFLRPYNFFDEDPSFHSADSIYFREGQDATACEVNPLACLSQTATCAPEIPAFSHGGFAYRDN
Description: Inhibition of amine oxidase activity of mouse SSAO/VAP-1 (3T3-L1 adipocytes, Amplex Red). The following applies: 3T3-L1 adipocyte SSAO, 30 min at 37° C. preincubation, 40 μM benzylamine. The format is biochemical.
Description: 3T3-L1 Murine fibroblasts were purchased from the American Type Culture Collection (ATCC, Rockville, Md.). Dulbecco's Modified Eagle Medium (DMEM) and fetal calf serum (FCS), antibiotics and Amplex® Red were obtained from Invitrogen (Carlsbad, Calif.). Tissue culture plastics and black clear-bottom 96 well plates were from BD Falcon (Bedford, Mass.). Bicinchoninic acid (BCA) reagent was from Pierce (Rockford, Ill.). All other materials were obtained from Sigma (St. Louis, Mo.).
3T3-L1 Fibroblasts were cultured in DMEM supplemented with 10% heat-inactivated FCS, 2 mM L-glutamine, 100 U/L penicillin and 100 μg/L streptomycin at 37° C. in 5% CO2. For differentiation into adipocytes, fibroblasts were cultured in DMEM with FCS for 1 or 2 days postconfluence, after which the cells were cultured for 3 days in DMEM containing 10% FCS, 350 nM insulin, 0.5 mM 3-isobutyl-1-methylxanthine, 250 nM dexamethasone, and 400 nM biotin and for 3 days in DMEM containing 10% FCS and 350 nM insulin. After differentiation, adipocytes were maintained in DMEM supplemented with 10% FCS. Adipocytes were used for experiments 8 to 11 days after the onset of differentiation, and the medium was renewed 2 or 3 days prior to each experiment. For culturing in black clear-bottom 96-well plates, cells were seeded at a 1:1 cell surface ratio, and differentiation was initiated 4 days postseeding. Cells were used between days 6-12 post-differentiation and between passages 7 and 20. Adipocytes were used as an SSAO source either as adherent cells or as a homogenate.
To prepare homogenate, 10 cm dishes of adipocytes were washed with HES buffer (20 mM HEPES, 1 mM EDTA, 250 mM sucrose, pH 7.4) and scraped in HES buffer containing 10 μg/mL leupeptin, 10 μM pepstatin and 1 mM PMSF. Cells were lysed by passage through a 23 G needle followed by passage through a 27 G needle. The lysate was spun at 500 g for 5 min and fat was removed. Protein concentration of the supernatant was measured using a BCA assay according to the manufacturer's instructions. The homogenate was stored at −80° C. until needed.
as §1

The next experiment concerns the target T4, rat SSAO/VAP-1 (Rattus norvegicus, UniProt O08590).
T4 sequence (O08590 1-763): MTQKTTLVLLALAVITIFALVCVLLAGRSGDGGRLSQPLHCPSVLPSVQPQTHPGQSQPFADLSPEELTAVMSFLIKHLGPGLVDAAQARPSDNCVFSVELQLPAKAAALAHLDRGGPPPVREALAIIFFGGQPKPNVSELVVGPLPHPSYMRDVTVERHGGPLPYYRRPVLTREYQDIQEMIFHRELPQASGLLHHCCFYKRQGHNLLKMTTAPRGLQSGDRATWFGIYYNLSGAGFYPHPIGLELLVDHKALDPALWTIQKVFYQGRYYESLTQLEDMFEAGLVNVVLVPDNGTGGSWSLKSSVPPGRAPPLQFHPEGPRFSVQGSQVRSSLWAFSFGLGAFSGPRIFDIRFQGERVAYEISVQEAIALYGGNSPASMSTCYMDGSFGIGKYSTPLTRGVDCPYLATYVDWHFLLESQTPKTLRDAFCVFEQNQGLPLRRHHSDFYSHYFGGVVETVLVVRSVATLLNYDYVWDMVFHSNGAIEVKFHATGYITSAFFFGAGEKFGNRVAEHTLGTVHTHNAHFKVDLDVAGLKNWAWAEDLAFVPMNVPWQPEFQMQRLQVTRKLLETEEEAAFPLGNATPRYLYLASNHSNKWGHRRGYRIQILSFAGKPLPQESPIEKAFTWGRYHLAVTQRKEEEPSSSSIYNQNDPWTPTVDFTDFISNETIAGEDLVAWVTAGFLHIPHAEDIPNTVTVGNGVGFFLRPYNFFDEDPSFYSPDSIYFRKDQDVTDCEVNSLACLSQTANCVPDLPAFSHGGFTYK
The settings on record: reports in the literature; cited from earlier work.

As for `NC/C=C(/F)COc1cccc(C(F)(F)F)c1` [(E)-3-Fluoro-4-(3-(trifluoromethyl)phenoxy)but-2-en-1-amine hydrochloride], the IC50 is under 1000 nM on Human SSAO/VAP-1, under 1000 nM at Human MAO-B and under 100000 nM against Mouse SSAO/VAP-1.

With `NC/C(=C/Cl)c1ccccc1` [MDL72274], the “Selectivity for rat SSAO/VAP-1 compared to MAO-A and MAO-B” value at rat SSAO/VAP-1 was “selectively inhibiting rat SSAO/VAP-1”.
